Values after ≈ are worked out from the molar mass of the structure shown. Where two headings read alike, the source gives them in different places.

For one test, the system named is Trichoderma viride (Tv). Nature of the test: Minimum inhibitory concentration (MIC) in malt yeast agar, Trichoderma viride. The test is classed as cell-based. The method in brief:
(§1)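 Agar dilution: test compound from a 1% acetone/water solution was mixed into malt yeast agar (pH 5.5) at 48 °C to final […], 25, 10, 5, 2.5, 1.0 and zero ppm. Plates dried 24 h, were replicator-inoculated with 1:9 saline-diluted suspensions of 7-day 30 °C cultures, and were read after 72 h (fungi) or 48 h (yeast) at 30 °C.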

The subject of test [1] is Salmonella choleraesuis (Se). Nature of the test: Minimum inhibitory concentration (MIC) in nutrient agar, Salmonella choleraesuis. It counts as cell-based. The note with it: Salmonella enterica. The method in brief:
(§2)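 Test compound, as a 1% acetone–water solution, was mixed into molten nutrient agar (pH 6.8 or pH 8.2) at 48° C to final levels of 500 down to 1.0 ppm. Plates were dried 24 h, spot-inoculated with 10^8 CFU/mL suspensions of 24-h cultures, and incubated 48 h at 30° C. MIC was the lowest level preventing growth.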

The test system of the next test is marine organisms. Nature of the test: Marine antifouling rating of coated test panels exposed to the marine environment. The note with it: scale 10 (completely free of growth) to 0 (completely covered); for Marine Antifouling Rating, 6 Week Test, Top Panel / Marine Antifouling Rating, 6 Week Test, Bottom Panel: 6 weeks; for Marine Antifouling Rating, 6 Week Test, Top Panel / Marine Antifouling Rating, 10 Week Test, Top Panel: topside; for Marine Antifouling Rating, 6 Week Test, Bottom Panel / Marine Antifouling Rating, 10 Week Test, Bottom Panel: underside; for Marine Antifouling Rating, 10 Week Test, Top Panel / Marine Antifouling Rating, 10 Week Test, Bottom Panel: 10 weeks. The protocol:
Test panels are prepared from clear, rigid polyvinyl chloride film that is 0.381×10-3 m thick and has one textured surface. The test panels are 0.1524 m by 0.1524 m squares that have 0.00635 m holes punched at corners on 0.127 m centers. A 0.102 square template, with a 0.067 m diameter hole at the center, is attached to the center of the textured surface of the test panels.
A candidate marine antifoulant compound (1.0 g) is stirred into a resinous latex binder (9.0 g). A portion of the compound/binder mixture (1.5 g) is added to the center of the test panel and uniformly spread over the circular area inside the template.
Water is added dropwise as needed to properly spread the compound/binder mixture. The template prevents the compound/binder mixture from spreading beyond the uncovered area. […] The template is then removed. The test panel is then allowed to dry for 8 to 12 hours at room temperature.
Two test panels are prepared for each candidate marine antifoulant compound. Two control test panels are also prepared by only treating with the resinous latex binder. One test panel of each candidate marine […] compound is attached over a white background to the topside of an exposure support apparatus. The second test panel is attached over a black background to the underside of the exposure support apparatus. The exposure support apparatus is placed horizontally 0.0254 m under a marine surface with the white background topside facing up.
After being removed from the exposure support apparatus, each test panel is inspected and rated for marine organism growth on both the treated and untreated areas of the test panel, The marine organisms present on the treated and untreated areas are noted. The presence of algae spores and bacterial slime are noted but not included in rating each test panel. The test panels are rated on a scale from 10 (representing completely free of marine organism growth) to 0 (representing completely covered with marine organism growth).
In addition, test panels were prepared using tributyl tin oxide, a known marine antifouling compound.

The test system of a further test is Escherichia coli (Ec). Nature of the test: Minimum inhibitory concentration (MIC) in nutrient agar, Escherichia coli. The test is classed as cell-based. Summed up:
as §2

Test [2] has as its system Penicillium chrysogenum (Pc). Nature of the test: Minimum inhibitory concentration (MIC) in malt yeast agar, Penicillium chrysogenum. The note with it: 72 h, pH 5.5, read-out: Minimum Inhibitory Concentration, PC. The test is classed as cell-based. Summed up:
as §1

The subject of a further test is Aspergillus niger (An). Nature of the test: Minimum inhibitory concentration (MIC) in malt yeast agar, Aspergillus niger. The test is classed as cell-based. The note with it: 72 h, pH 5.5, read-out: Minimum Inhibitory Concentration, An. The method in brief:
as §1

Setting [3] is: pH 6.8, nutrient agar, 30° C., 48 hours, read-out: Minimum Inhibitory Concentration, SC.

In the case of `N#CSc1nsnc1-c1ccccc1` [Example I, 4-Phenyl-3-thiocyanato-1,2,5-thiadiazole], the MIC was 2.5 mg/L (≈ 11.4 µM) in the test on Trichoderma viride (Tv) (pH 5.5, malt yeast agar, 30° C., 72 hours for fungi, read-out: Minimum Inhibitory Concentration, Tv); above 500 mg/L in test [1] (48 h, pH 8.2, read-out: Minimum Inhibitory Concentration, SC); 50 mg/L (≈ 228 µM) in test [1] (setting [3]); 50 mg/L (≈ 228 µM) with Escherichia coli (Ec) (48 h, pH 6.8, read-out: Minimum Inhibitory Concentration, Ec); above 500 mg/L in the test with Escherichia coli (Ec) (48 h, pH 8.2, read-out: Minimum Inhibitory Concentration, Ec). Besides, the “Marine Antifouling Rating, 6 Week Test, Top Panel” value in the test with marine organisms is 7. Further, the “Marine Antifouling Rating, 6 Week Test, Bottom Panel” value in the test with marine organisms worked out at 7. Further, in the test with marine organisms, the “Marine Antifouling Rating, 10 Week Test, Top Panel” value came to 4. The “Marine Antifouling Rating, 10 Week Test, Bottom Panel” value in the test on marine organisms is on record as 3.

Take `N#CSCSc1nsnc1-c1ccccc1` [Example XVI, 4-Phenyl-3-thiocyanato-methylthio-1,2,5-thiadiazole]: the MIC was 2.5 mg/L (≈ 9.42 µM) in test [2]; 10 mg/L (≈ 37.7 µM) with Trichoderma viride (Tv) (72 h, pH 5.5, read-out: Minimum Inhibitory Concentration, Tv); 25 mg/L (≈ 94.2 µM) in test [1] (setting [3]); 250 mg/L (≈ 942 µM) in test [1] (pH 8.2, nutrient agar, 30° C., 48 hours, read-out: Minimum Inhibitory Concentration, SC); 2.5 mg/L (≈ 9.42 µM) with Aspergillus niger (An); 25 mg/L (≈ 94.2 µM) in the test on Escherichia coli (Ec) (pH 6.8, nutrient agar, 30° C., 48 hours, read-out: Minimum Inhibitory Concentration, Ec). In addition, the MIC in the test on Escherichia coli (Ec) (pH 8.2, nutrient agar, 30° C., 48 hours, read-out: Minimum Inhibitory Concentration, Ec) was found to be 250 mg/L (≈ 942 µM). In addition, in the test on marine organisms, the “Marine Antifouling Rating, 6 Week Test, Top Panel” value was 9. The “Marine Antifouling Rating, 6 Week Test, Bottom Panel” value in the test on marine organisms was 9. The “Marine Antifouling Rating, 10 Week Test, Top Panel” value in the test with marine organisms was 4. For the same molecule, the “Marine Antifouling Rating, 10 Week Test, Bottom Panel” value in the test with marine organisms is 9.

Source of the values: US5488060A, “Substituted thiadiazoles, compositions containing them and their use as antimicrobial and marine antifouling agents” (The Dow Chemical Company, priority 1994, dated 1996).
